Source: US20140051679A1, “KINASE INHIBITORS AND METHOD OF TREATING CANCER WITH SAME” (UNIVERISTY HEALTH NETWORKS, priority 2011, published 2014)

Assays:
human TTK = target: T1, human TTK (Homo sapiens, UniProt P33981); experiment: TTK inhibition assay (indirect ELISA); format: biochemical; details: GST-TTK 0.68 nM, 16 μM ATP; read-out: IC50 Ranges TTK
T1 construct: amino terminal GST fusion of full length human TTK; purchased Invitrogen
T1 sequence (P33981 1-857): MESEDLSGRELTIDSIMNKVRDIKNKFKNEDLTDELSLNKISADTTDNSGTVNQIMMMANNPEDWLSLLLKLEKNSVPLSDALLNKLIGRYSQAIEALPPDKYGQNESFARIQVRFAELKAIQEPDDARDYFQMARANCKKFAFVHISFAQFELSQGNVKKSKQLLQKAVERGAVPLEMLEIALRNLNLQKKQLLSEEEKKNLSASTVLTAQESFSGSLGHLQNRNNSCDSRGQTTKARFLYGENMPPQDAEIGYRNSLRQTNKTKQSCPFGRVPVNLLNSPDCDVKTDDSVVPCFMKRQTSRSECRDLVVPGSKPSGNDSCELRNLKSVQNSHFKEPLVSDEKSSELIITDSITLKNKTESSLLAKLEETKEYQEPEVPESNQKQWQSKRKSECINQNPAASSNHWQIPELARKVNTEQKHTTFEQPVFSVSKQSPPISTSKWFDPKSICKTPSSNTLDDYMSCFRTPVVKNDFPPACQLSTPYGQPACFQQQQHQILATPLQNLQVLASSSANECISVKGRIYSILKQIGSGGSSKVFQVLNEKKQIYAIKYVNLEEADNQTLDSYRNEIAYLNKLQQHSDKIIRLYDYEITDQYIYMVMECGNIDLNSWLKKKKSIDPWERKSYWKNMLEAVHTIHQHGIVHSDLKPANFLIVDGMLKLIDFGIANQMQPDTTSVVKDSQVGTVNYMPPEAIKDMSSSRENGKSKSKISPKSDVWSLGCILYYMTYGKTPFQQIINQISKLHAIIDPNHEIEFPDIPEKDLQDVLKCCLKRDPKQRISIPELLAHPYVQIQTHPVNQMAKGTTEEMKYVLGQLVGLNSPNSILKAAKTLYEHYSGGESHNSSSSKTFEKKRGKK
Protocol: Active TTK was purchased from Invitrogen as an amino terminal GST fusion of full length human TTK.
TTK activity was measured using an indirect ELISA detection system. GST-TTK (0.68 nM) was incubated in the presence of 16 μM ATP (Sigma cat#A7699), 50 mM Hepes pH 7.2, 1 mM EGTA, 10 mM MgCl2, and 0.1% Pluronic in a 96 well microtitre plate pre-coated with amino terminal 6 histidine, sumo tagged TTK (amino acid residues 1-275). The reaction was allowed to proceed for 30 minutes, followed by 5 washes of the plate with Wash Buffer (phosphate buffered saline supplemented with 0.2% Tween 20), and incubation for 30 minutes with a 1:3000 dilution of primary antibody (Cell Signaling cat#9381). The plate was washed 5 times with Wash Buffer, incubated for 30 minutes in the presence of secondary antibody coupled to horse radish peroxidase (BioRad cat#1721019, 1:3000 concentration), washed an additional 5 times with Wash Buffer, and incubated in the presence of TMB substrate (Sigma cat#T0440). The colourimetric reaction was allowed to continue for 5 minutes, followed by addition of stop solution (0.5 N sulphuric acid), and quantified by detection at 450 nm with either a monochromatic or filter based plate reader (Molecular Devices M5 or Beckman DTX880, respectively).
Compounds were pre-incubated in the presence of enzyme for 5 minutes prior to addition of ATP and the activity remaining quantified using the above described activity assay. The % Inhibition of a compound was determined using the following formula; % Inhibition=100×(1−(experimental value−background value)/(high activity control−background value)). The IC50 value was determined using a non-linear 4 point logistic curve fit (XLfit4, IDBS) with the formula; (A+(B/(1+((x/C)̂D)))), where A=background value, B=range, C=inflection point, D=curve fit parameter.

human PLK4 = target: T2, human PLK4 (Homo sapiens, UniProt O00444); experiment: PLK4 inhibition assay (indirect ELISA); format: biochemical; details: GST-PLK4 4 nM, 15 μM ATP; read-out: IC50 Ranges PLK4
T2 construct: amino terminal GST fusion of residues 1-391 of human PLK4; made in house; host or cells: E. coli
T2 sequence (O00444 1-391): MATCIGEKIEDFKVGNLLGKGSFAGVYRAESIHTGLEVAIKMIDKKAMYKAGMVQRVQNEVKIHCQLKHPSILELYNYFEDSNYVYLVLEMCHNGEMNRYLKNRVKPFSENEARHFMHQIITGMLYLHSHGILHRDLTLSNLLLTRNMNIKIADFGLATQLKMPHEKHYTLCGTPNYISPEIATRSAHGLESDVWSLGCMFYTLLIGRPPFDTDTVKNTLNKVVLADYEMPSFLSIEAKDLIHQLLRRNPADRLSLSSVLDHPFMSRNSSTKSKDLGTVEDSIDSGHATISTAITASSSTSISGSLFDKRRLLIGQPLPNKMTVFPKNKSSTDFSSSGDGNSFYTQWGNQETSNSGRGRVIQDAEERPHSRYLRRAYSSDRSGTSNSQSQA
How it was run: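 Compounds were tested either at a single 10 μM dose or across 10-point titrations (typically 0.5 to 0.001 μM), preincubated 15 min with 4 nM GST-PLK4 (human 1-391, dephosphorylated) before 15 μM ATP was added. MBP substrate phosphorylation over 30 min, pH 7.5 HEPES/MgCl2 buffer, read by HRP/TMB ELISA (450 nm). % inhibition vs. high-activity control; IC50 by logistic fit.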

[1] = system: MDA-MB-231 breast cancer cells; experiment: Cell growth inhibition, Sulforhodamine B assay, MDA-MB-231; format: cell-based; details: Homo sapiens, 120 h, 5 days culture, SRB assay, read-out: Cell Line GI50 Range MDA-MB-231
[2] = system: MDA-MB-468 breast cancer cells; experiment: Cell growth inhibition, Sulforhodamine B assay, MDA-MB-468; format: cell-based; details: Homo sapiens, 120 h, 5 days culture, SRB assay, read-out: Cell Line GI50 Range MDA-MB-468
[3] = system: HCT116 colon cancer cells; experiment: Cell growth inhibition, Sulforhodamine B assay, HCT116; format: cell-based; details: Homo sapiens, HCT-116, 120 h, 5 days culture, SRB assay, read-out: Cell Line GI50 Range HCT116
HT29 colon cancer cells = experiment: Cell growth inhibition, Sulforhodamine B assay, HT29; format: cell-based; details: Homo sapiens, HT-29, 120 h, 5 days culture, SRB assay, read-out: Cell Line GI50 Range HT29
[4] = system: PA-1 ovarian cancer cells; experiment: Cell growth inhibition, Sulforhodamine B assay, PA-1; format: cell-based; details: 120 h, 5 days culture, SRB assay, read-out: Cell Line GI50 Range PA-1
Protocol: (§1) Breast cancer cells (MDA-MB-231, MDA-MB-468), colon cancer cells (HCT116, HT29) and ovarian cancer cells (PA-1, OVCAR-3) were seeded (1000 to 4000 in 80 μl per well depending on the cell growth rate) into 96 well plates 24 hours before compound overlay. Compounds were prepared as 10 mM stock solutions in 100% DMSO which were diluted with DMEM (Dulbecco's Modified Eagle's Medium) cell growth Medium (Invitrogen, Burlington, ON, Canada) containing 10% FBS (Fetal Bovine Serum) to concentrations ranging from 50 nM to 250 μM. Aliquots (20 μl) from each concentration were overlaid to 80 μl of the pre-seeded cells in the 96 well plates to make final concentrations of 10 nM to 50 μM. The cells were cultured for 5 days before the Sulforhodamine B assay (SRB) was performed to determine the compound's cell growth inhibition activity.
(§2) Sulforhodamine B (purchased from Sigma, Oakville, ON, Canada) is a water-soluble dye that binds to the basic amino acids of the cellular proteins. Thus, colorimetric measurement of the bound dye provides an estimate of the total protein mass that is related to the cell number. the cells are fixed in situ by gently aspirating off the culture media and adding 50 μl ice cold 10% Trichloroacetic Acid (TCA) per well and incubate at 4° C. for 30-60 min, The plates are washed with water five times and allowed to air dry for 5 min. Addition of 50 μl 0.4% (w/v) SRB solution in 1% (v/v) acetic acid to each well and incubatation for 30 min at RT completes the staining reaction. Following staining, plates are washed four times with 1% acetic acid to remove unbound dye and then allowed to air dry for 5 min. The stain is solubilized with 100 μl of 10 mM Tris pH 10.5 per well. Absorbance is read at 570 nm.
(§3) The percentage (%) of relative growth inhibition was calculated by comparing to DMSO treated only cells (100%). […] The GI50 was calculated using GraphPad PRISM software (GraphPad Software, Inc., San Diego, Calif., USA).

[5] = system: OVCAR-3 ovarian cancer cells; experiment: Cell growth inhibition, Sulforhodamine B assay, OVCAR-3; format: cell-based; details: Homo sapiens, 120 h, 5 days culture, SRB assay, read-out: Cell Line GI50 Range OVCAR-3
Protocol: as §1, §2, §3

Aurora B = target: T3, Aurora B (Homo sapiens, UniProt Q96GD4); experiment: Aurora B inhibition assay (Z-Lyte); format: biochemical; details: 28 nM Aurora B, 128 μM ATP; read-out: IC50 Ranges Aurora B
T3 construct: purchased Invitrogen PV3970
T3 sequence (Q96GD4 whole entry): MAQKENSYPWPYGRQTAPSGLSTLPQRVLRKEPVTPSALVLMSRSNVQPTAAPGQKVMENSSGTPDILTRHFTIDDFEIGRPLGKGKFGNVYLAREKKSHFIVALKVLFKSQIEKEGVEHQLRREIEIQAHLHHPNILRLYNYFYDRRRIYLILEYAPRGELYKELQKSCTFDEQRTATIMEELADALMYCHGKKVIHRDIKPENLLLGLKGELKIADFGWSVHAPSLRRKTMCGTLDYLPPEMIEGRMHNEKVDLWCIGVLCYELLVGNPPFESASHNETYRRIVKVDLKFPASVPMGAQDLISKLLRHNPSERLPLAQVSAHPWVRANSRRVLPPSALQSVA
Protocol: Aurora B inhibition was determined using the Z-Lyte assay kit from Invitrogen. The assay was performed using the recommended manufacturer's instructions with 128 μM ATP and 28 nM Aurora B (Invitrogen cat #PV3970). The % inhibition values were determined according to the manufacturer's directions and IC50 values were obtained using a non-linear 4 point logistic curve fit (XLfit4, IDBS)

CC(C)(C)OC(=O)N1CCC(Oc2ccc(-c3n[nH]c4ccc(NC(=O)C(c5ccsc5)N5CCCC5)cc34)cc2)CC1 (centres unmarked) [Example A115, tert-butyl 4-(4-(5-(2-(pyrrolidin-1-yl)-2-(thiophen-3-yl)acetamido)-1H-indazol-3-yl)phenoxy)piperidine-1-carboxylate]
≤ 5 µM: IC50 (human TTK) | IC50 (human PLK4) | GI50 [1] | GI50 [2] | GI50 [3] | GI50 (HT29 colon cancer cells) | GI50 [4] | GI50 [5]

CO[C@@H](C(=O)Nc1ccc2[nH]nc(-c3ccc(OCC4CCN(C)CC4)cc3)c2c1)c1ccccc1 [Example A145, (R)-2-methoxy-N-(3-(4-((1-methylpiperidin-4-yl)methoxy)phenyl)-1H-indazol-5-yl)-2-phenylacetamide]
≤ 5 µM: IC50 (human TTK) | IC50 (human PLK4) | GI50 [1] | GI50 [2] | GI50 [3] | GI50 (HT29 colon cancer cells) | GI50 [4] | GI50 [5]

COc1cc(-c2n[nH]c3ccc(C(=O)NC(c4ccccc4)C4CC4)cc23)ccc1OC1CCN(C2COC2)CC1 (centres unmarked) [Example A194, N-(cyclopropyl(phenyl)methyl)-3-(3-methoxy-4-((1-(oxetan-3-yl)piperidin-4-yl)oxy)phenyl)-1H-indazole-5-carboxamide]
≤ 5 µM: IC50 (human TTK) | IC50 (human PLK4) | IC50 (Aurora B) | GI50 [1] | GI50 [2] | GI50 [3] | GI50 [4] | GI50 [5]

CN1CCC(Oc2ccc(-c3n[nH]c4ccc(C(=O)NC(c5ccccc5Cl)C5CCCC5)cc34)cc2)CC1 (centres unmarked) [Example A199, N-((2-chlorophenyl)(cyclopentyl)methyl)-3-(4-((1-methylpiperidin-4-yl)oxy)phenyl)-1H-indazole-5-carboxamide]
≤ 5 µM: IC50 (human TTK) | IC50 (human PLK4) | IC50 (Aurora B) | GI50 [1] | GI50 [2] | GI50 [3] | GI50 [4] | GI50 [5]

CN1CCC(Oc2ccc(-c3n[nH]c4ccc(C(=O)NC(c5ccccn5)C5CC5)cc34)cc2Cl)CC1 (centres unmarked) [Example A198, 3-(3-chloro-4-((1-methylpiperidin-4-yl)oxy)phenyl)-N-(cyclopropyl(pyridin-2-yl)methyl)-1H-indazole-5-carboxamide]
≤ 5 µM: IC50 (human TTK) | IC50 (human PLK4) | IC50 (Aurora B) | GI50 [1] | GI50 [2] | GI50 [3] | GI50 [4] | GI50 [5]

CN1CCC(Oc2ccc(-c3n[nH]c4ccc(NC(=O)C(c5ccccc5F)C5CCCC5)cc34)cc2)CC1 (centres unmarked) [Example A162, 2-cyclopentyl-2-(2-fluorophenyl)-N-(3-(4-((1-methylpiperidin-4-yl)oxy)phenyl)-1H-indazol-5-yl)acetamide]
≤ 5 µM: IC50 (human TTK) | IC50 (human PLK4) | GI50 [1] | GI50 [2] | GI50 [3] | GI50 (HT29 colon cancer cells) | GI50 [4] | GI50 [5]

CN1CCC(Oc2ccc(-c3n[nH]c4ccc(C(=O)N[C@H](CCO)c5ccccc5)cc34)cc2Cl)CC1 [Example A202, (R)-3-(3-chloro-4-((1-methylpiperidin-4-yl)oxy)phenyl)-N-(3-hydroxy-1-phenylpropyl)-1H-indazole-5-carboxamide]
≤ 5 µM: IC50 (human TTK) | IC50 (human PLK4) | IC50 (Aurora B) | GI50 [1] | GI50 [2] | GI50 [3] | GI50 [4] | GI50 [5]

Cc1ccccc1C(NC(=O)c1ccc2[nH]nc(-c3ccc(N4CC(O)C4)cc3)c2c1)C1CC1 (centres unmarked) [Example A141, N-(Cyclopropyl(o-tolyl)methyl)-3-(4-(3-hydroxyazetidin-1-yl)phenyl)-1H-indazole-5-carboxamide]
≤ 5 µM: IC50 (human TTK) | IC50 (human PLK4) | GI50 [1] | GI50 [2] | GI50 [3] | GI50 (HT29 colon cancer cells) | GI50 [4] | GI50 [5]

COc1ccccc1C(C(=O)Nc1ccc2[nH]nc(-c3ccc(OC4CCN(C)CC4)cc3)c2c1)C1CCCC1 (centres unmarked) [Example A156, 2-cyclopentyl-2-(2-methoxyphenyl)-N-(3-(4-((1-methylpiperidin-4-yl)oxy)phenyl)-1H-indazol-5-yl)acetamide]
≤ 5 µM: IC50 (human TTK) | IC50 (human PLK4) | GI50 [1] | GI50 [2] | GI50 [3] | GI50 (HT29 colon cancer cells) | GI50 [4] | GI50 [5]

CO[C@@H](C(=O)Nc1ccc2[nH]nc(-c3ccc(O[C@@H]4CCN(C)C[C@@H]4F)cc3)c2c1)c1ccccc1 (relative stereo) [Example A135, (R)—N-(3-(4-(((3S,4R)-3-fluoro-1-methylpiperidin-4-yl)oxy)phenyl)-1H-indazol-5-yl)-2-methoxy-2-phenylacetamide]
≤ 5 µM: IC50 (human TTK) | IC50 (human PLK4) | GI50 [1] | GI50 [2] | GI50 [3] | GI50 (HT29 colon cancer cells) | GI50 [4] | GI50 [5]

CN1CCC(Oc2ccc(-c3n[nH]c4ccc(C(=O)NCc5ccccc5CO)cc34)cc2)CC1 [Example A142, N-(2-(hydroxymethyl)benzyl)-3-(4-((1-methylpiperidin-4-yl)oxy)phenyl)-1H-indazole-5-carboxamide]
5 to 20 µM: GI50 [5]
≤ 5 µM: IC50 (human TTK) | IC50 (human PLK4) | GI50 [1] | GI50 [2] | GI50 [3] | GI50 (HT29 colon cancer cells) | GI50 [4]

COCCN1CCC(Oc2ccc(-c3n[nH]c4ccc(C(=O)N[C@H](COC)c5ccccc5)cc34)cc2)CC1 [Example A164, (S)—N-(2-methoxy-1-phenylethyl)-3-(4-((1-(2-methoxyethyl)piperidin-4-yl)oxy)phenyl)-1H-indazole-5-carboxamide]
≤ 5 µM: IC50 (human TTK) | IC50 (human PLK4) | GI50 [1] | GI50 [2] | GI50 [3] | GI50 (HT29 colon cancer cells) | GI50 [4] | GI50 [5]

O=C(Nc1ccc2[nH]nc(-c3ccc(OC4CCN(CCF)CC4)cc3)c2c1)C(c1ccsc1)N1CCCC1 (centres unmarked) [Example A102, N-(3-(4-((1-(2-fluoroethyl)piperidin-4-yl)oxy)phenyl)-1H-indazol-5-yl)-2-(pyrrolidin-1-yl)-2-(thiophen-3-yl)acetamide]
5 to 20 µM: GI50 [5]
≤ 5 µM: IC50 (human TTK) | IC50 (human PLK4) | IC50 (Aurora B) | GI50 [2] | GI50 [3] | GI50 (HT29 colon cancer cells) | GI50 [4]
